± gives the standard deviation of the averaged measurements.
Tests used:
Experiment in all cases: relative viability vs DMSO control (72 h) (fraction); higher = more viable cells
A204 = system: A204
Outline: (§1)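 ATPLite readings, expressed as percent growth and averaged over up to triplicate wells, provided relative viability. Before reading, sarcoma cell lines seeded in 384-well plates to reach 80–90% confluence received 2.5 µl of serially diluted compound after 24 h, from source plates of 10 mM to 0.0002 mM. Plates were held 72 h at 37 °C, 5% CO2, with 0.1% DMSO as vehicle and a 5 µM positive control. The data were rescaled to 1 for full and 0 for none.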

G401 = system: G401
Outline: as §1

HS729 = system: HS729
Outline: as §1

HT1080 = system: HT1080
Outline: as §1

KHOS-NP = system: KHOS-NP
Outline: as §1

MES-SA = system: MES-SA
Outline: as §1

SK-LMS-1 = system: SK-LMS-1
Outline: as §1

SW1353 = system: SW1353
Outline: as §1

SW684 = system: SW684
Outline: as §1

SW872 = system: SW872
Outline: as §1

SYO-1 = system: SYO-1
Outline: as §1

VA-ES-BJ = system: VA-ES-BJ
Outline: as §1

CNC(=O)c1nnc(NC(=O)C2CC2)cc1Nc1cccc(-c2ncn(C)n2)c1OC
Conditions | relative viability
A204, 0.00017 µM | 1.1 ± 0.046
A204, 0.00051 µM | 1.09 ± 0.021
A204, 0.00152 µM | 1.08 ± 0.033
A204, 0.00457 µM | 1.06 ± 0.023
A204, 0.01372 µM | 1.06 ± 0.048
A204, 0.04115 µM | 1.06 ± 0.021
A204, 0.1235 µM | 1.07 ± 0.018
A204, 0.3704 µM | 1.09 ± 0.037
A204, 1.111 µM | 1.11 ± 0.054
A204, 3.333 µM | 1.01 ± 0.025
A204, 10 µM | 0.714 ± 0.042
G401, 0.00017 µM | 1 ± 0.024
G401, 0.00051 µM | 0.988 ± 0.042
G401, 0.00152 µM | 1.03 ± 0.055
G401, 0.00457 µM | 1.03 ± 0.022
G401, 0.01372 µM | 1.074 ± 0.0064
G401, 0.04115 µM | 1.02 ± 0.029
G401, 0.1235 µM | 1.04 ± 0.013
G401, 0.3704 µM | 1.031 ± 0.0092
G401, 1.111 µM | 1.013 ± 0.0081
G401, 3.333 µM | 0.999 ± 0.039
G401, 10 µM | 0.906 ± 0.027
HS729, 0.00017 µM | 0.934 ± 0.053
HS729, 0.00051 µM | 0.925 ± 0.034
HS729, 0.00152 µM | 0.869 ± 0.025
HS729, 0.00457 µM | 0.885 ± 0.031
HS729, 0.01372 µM | 0.9 ± 0.027
HS729, 0.04115 µM | 0.931 ± 0.054
HS729, 0.1235 µM | 0.906 ± 0.031
HS729, 0.3704 µM | 0.8552 ± 0.0064
HS729, 1.111 µM | 0.86 ± 0.021
HS729, 3.333 µM | 0.84 ± 0.058
HS729, 10 µM | 0.761 ± 0.022
HT1080, 0.00017 µM | 1.07 ± 0.012
HT1080, 0.00051 µM | 1.04 ± 0.037
HT1080, 0.00152 µM | 1.05 ± 0.023
HT1080, 0.00457 µM | 1.03 ± 0.047
HT1080, 0.01372 µM | 1.02 ± 0.035
HT1080, 0.04115 µM | 1.05 ± 0.044
HT1080, 0.1235 µM | 1.01
HT1080, 0.3704 µM | 1.042 ± 0.01
HT1080, 1.111 µM | 1.1 ± 0.034
HT1080, 3.333 µM | 1.11 ± 0.058
HT1080, 10 µM | 0.995 ± 0.0044
KHOS-NP, 0.00017 µM | 1.07 ± 0.012
KHOS-NP, 0.00051 µM | 1.08 ± 0.013
KHOS-NP, 0.00152 µM | 1.063 ± 0.005
KHOS-NP, 0.00457 µM | 1.06 ± 0.018
KHOS-NP, 0.01372 µM | 1.07 ± 0.0064
KHOS-NP, 0.04115 µM | 1.076 ± 0.0089
KHOS-NP, 0.1235 µM | 1.08 ± 0.029
KHOS-NP, 0.3704 µM | 1.07 ± 0.033
KHOS-NP, 1.111 µM | 1.061 ± 0.008
KHOS-NP, 3.333 µM | 1.09 ± 0.052
KHOS-NP, 10 µM | 1.05 ± 0.043
MES-SA, 0.00017 µM | 0.926 ± 0.034
MES-SA, 0.00051 µM | 0.938 ± 0.016
MES-SA, 0.00152 µM | 0.926 ± 0.024
MES-SA, 0.00457 µM | 0.92 ± 0.018
MES-SA, 0.01372 µM | 0.943 ± 0.024
MES-SA, 0.04115 µM | 0.952 ± 0.044
MES-SA, 0.1235 µM | 0.944 ± 0.0097
MES-SA, 0.3704 µM | 0.943 ± 0.019
MES-SA, 1.111 µM | 0.923 ± 0.0098
MES-SA, 3.333 µM | 0.891 ± 0.024
MES-SA, 10 µM | 0.669 ± 0.017
SK-LMS-1, 0.00017 µM | 1.09 ± 0.077
SK-LMS-1, 0.00051 µM | 1.09 ± 0.065
SK-LMS-1, 0.00152 µM | 1.06 ± 0.031
SK-LMS-1, 0.00457 µM | 1.08 ± 0.043
SK-LMS-1, 0.01372 µM | 1.1 ± 0.013
SK-LMS-1, 0.04115 µM | 1.06 ± 0.022
SK-LMS-1, 0.1235 µM | 1.08 ± 0.046
SK-LMS-1, 0.3704 µM | 1.06 ± 0.049
SK-LMS-1, 1.111 µM | 1.05 ± 0.083
SK-LMS-1, 3.333 µM | 1.06 ± 0.025
SK-LMS-1, 10 µM | 0.797 ± 0.02
SW684, 0.00017 µM | 1.16 ± 0.018
SW684, 0.00051 µM | 1.15 ± 0.12
SW684, 0.00152 µM | 1.18 ± 0.0016
SW684, 0.00457 µM | 1.15 ± 0.042
SW684, 0.01372 µM | 1.17 ± 0.039
SW684, 0.04115 µM | 1.17 ± 0.048
SW684, 0.1235 µM | 1.18 ± 0.087
SW684, 0.3704 µM | 1.2 ± 0.025
SW684, 1.111 µM | 1.15 ± 0.029
SW684, 3.333 µM | 1.14 ± 0.055
SW684, 10 µM | 1.12 ± 0.037
SW872, 0.00017 µM | 1.01 ± 0.06
SW872, 0.00051 µM | 1 ± 0.046
SW872, 0.00152 µM | 0.995 ± 0.074
SW872, 0.00457 µM | 1.026 ± 0.0098
SW872, 0.01372 µM | 1.01 ± 0.071
SW872, 0.04115 µM | 1.02 ± 0.026
SW872, 0.1235 µM | 1.03 ± 0.052
SW872, 0.3704 µM | 1.02 ± 0.037
SW872, 1.111 µM | 1.02 ± 0.012
SW872, 3.333 µM | 0.957 ± 0.051
SW872, 10 µM | 0.768 ± 0.028
SW1353, 0.00017 µM | 0.962 ± 0.024
SW1353, 0.00051 µM | 0.988 ± 0.0088
SW1353, 0.00152 µM | 0.968 ± 0.02
SW1353, 0.00457 µM | 1 ± 0.036
SW1353, 0.01372 µM | 0.985 ± 0.031
SW1353, 0.04115 µM | 0.982 ± 0.042
SW1353, 0.1235 µM | 0.978 ± 0.062
SW1353, 0.3704 µM | 0.964 ± 0.034
SW1353, 1.111 µM | 0.948 ± 0.049
SW1353, 3.333 µM | 0.9937 ± 0.0088
SW1353, 10 µM | 0.911 ± 0.044
SYO-1, 0.00017 µM | 0.958 ± 0.039
SYO-1, 0.00051 µM | 0.969 ± 0.028
SYO-1, 0.00152 µM | 0.924 ± 0.059
SYO-1, 0.00457 µM | 0.937 ± 0.043
SYO-1, 0.01372 µM | 0.952 ± 0.037
SYO-1, 0.04115 µM | 0.935 ± 0.03
SYO-1, 0.1235 µM | 0.924 ± 0.065
SYO-1, 0.3704 µM | 0.888 ± 0.089
SYO-1, 1.111 µM | 0.928 ± 0.04
SYO-1, 3.333 µM | 0.983 ± 0.031
SYO-1, 10 µM | 0.918 ± 0.023
VA-ES-BJ, 0.00017 µM | 0.986 ± 0.034
VA-ES-BJ, 0.00051 µM | 0.996 ± 0.037
VA-ES-BJ, 0.00152 µM | 1.02 ± 0.028
VA-ES-BJ, 0.00457 µM | 1.04 ± 0.014
VA-ES-BJ, 0.01372 µM | 1.035 ± 0.0086
VA-ES-BJ, 0.04115 µM | 1.03 ± 0.027
VA-ES-BJ, 0.1235 µM | 1.03 ± 0.015
VA-ES-BJ, 0.3704 µM | 1.01 ± 0.031
VA-ES-BJ, 1.111 µM | 1.04 ± 0.067
VA-ES-BJ, 3.333 µM | 0.974 ± 0.067
VA-ES-BJ, 10 µM | 0.828 ± 0.033
